Source: US20240351988A1, “ARYL HYDROCARBON RECEPTOR MODULATORS AND THEIR USE IN THE TREATMENT OF DISEASES AND DISORDERS” (Allianthera (Suzhou) Biopharmaceutical Co., Ltd., priority 2021, published 2024)

These compounds were tested against T1, Human Aryl Hydrocarbon Receptor (AhR) (Homo sapiens, UniProt P35869) (assay: AHR antagonist reporter assay in human cell line (INDIGO AhR Reporter Assay System, kynurenic acid activated)). Conditions: 200 μM kynurenic acid, 24 hours, luciferase; read-out: AhR Reporter Assay KA Antagonist Mode: IC50.
T1 construct: purchased INDIGO Bioscience #1B06001-32; host or cells: AhR Reporter Cell (kit's proprietary reporter cells)
T1 sequence (P35869 11-848): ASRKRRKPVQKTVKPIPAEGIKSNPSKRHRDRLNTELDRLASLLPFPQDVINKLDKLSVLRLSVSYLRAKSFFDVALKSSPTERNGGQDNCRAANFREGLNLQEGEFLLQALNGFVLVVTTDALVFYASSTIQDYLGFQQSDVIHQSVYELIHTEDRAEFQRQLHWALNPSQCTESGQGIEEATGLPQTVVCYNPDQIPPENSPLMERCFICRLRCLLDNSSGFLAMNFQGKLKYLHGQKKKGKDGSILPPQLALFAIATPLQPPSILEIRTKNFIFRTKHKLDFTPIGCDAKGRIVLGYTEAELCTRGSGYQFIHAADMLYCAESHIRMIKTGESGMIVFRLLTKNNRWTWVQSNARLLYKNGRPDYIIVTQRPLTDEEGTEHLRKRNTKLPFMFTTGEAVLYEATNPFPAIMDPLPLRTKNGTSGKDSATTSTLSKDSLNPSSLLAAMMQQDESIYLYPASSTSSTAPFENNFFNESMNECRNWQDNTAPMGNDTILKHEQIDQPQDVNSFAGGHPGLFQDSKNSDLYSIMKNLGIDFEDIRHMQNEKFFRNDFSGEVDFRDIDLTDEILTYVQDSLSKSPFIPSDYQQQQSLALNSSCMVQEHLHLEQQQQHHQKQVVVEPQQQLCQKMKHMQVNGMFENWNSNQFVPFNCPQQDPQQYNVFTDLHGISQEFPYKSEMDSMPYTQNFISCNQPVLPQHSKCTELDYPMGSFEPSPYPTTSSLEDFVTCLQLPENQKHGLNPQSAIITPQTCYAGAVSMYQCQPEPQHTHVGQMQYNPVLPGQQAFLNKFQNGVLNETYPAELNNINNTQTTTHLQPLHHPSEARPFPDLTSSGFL
Type: cell-based
Procedure: The AhR reporter assay was performed following the protocol of the Human Aryl Hydrocarbon Receptor (AhR) Reporter Assay System (INDIGO Bioscience, #1B06001-32). AhR Reporter Cell was thawed and pre-incubated in Cell Recovery Medium (CRM) for 6 hours. The media was then removed and the cells were incubated with Compound Screening Medium (CSM) supplemented with 200 μM kynurenic acid for 24 hours in the absence (negative control) or presence of increasing concentrations of test compounds (typical dilution: […], 3.2 nM, 16 nM, 80 nM, 400 nM, 2 μM, 10 μM in duplicates). For positive inhibition control, cells activated with 200 μM kynurenic acid were incubated in the presence of literature AHR antagonists; alternatively un-activated cells were used as positive inhibition control. Following 24 hours incubation, the media was removed and Luciferase Detection Reagent (LDR) added. The firefly luciferase activity was quantified using a plate reader. Results were normalized by positive and negative controls.

Structure (SMILES)	IC50
COC[C@H](C)NC(=O)c1cc(N2CC3(CCCCC3)C2)nn(-c2cnn(C)c2)c1=O [Compound 117]	> 0.4 µM
COC[C@H](C)NC(=O)c1cc(-c2ccccc2Cl)nn(-c2cnn(C)c2)c1=O [Compound 118]	> 0.4 µM
COC[C@H](C)NC(=O)c1cc(C2CCC(C)(C)CC2)nn(-c2cnn(C)c2)c1=O [Compound 119]	> 0.4 µM
COC[C@H](C)NC(=O)c1cc(-c2cc3cccnc3cc2F)nn(-c2cnn(C)c2)c1=O [Compound 121]	> 0.4 µM
COC[C@H](C)NC(=O)c1cc(-c2ccc3ccc(OC)nc3c2)nn(-c2cnn(C)c2)c1=O [Compound 122]	> 0.4 µM
COC[C@H](C)NC(=O)c1cc(-c2ccc3oc(C)nc3c2)nn(-c2cnn(C)c2)c1=O [Compound 124]	> 0.4 µM
COC[C@H](C)NC(=O)c1cc(N2C[C@H]3CCCC[C@H]3C2)nn(-c2cnn(C)c2)c1=O [Compound 125]	< 0.1 µM
COC[C@H](C)NC(=O)c1cc(-c2ccc3ncccc3c2)nn(-c2cnn(C)c2)c1=O [Compound 126]	> 0.4 µM
COC[C@H](C)NC(=O)c1cc(N2CCC(C)(C)CC2)nn(-c2cnn(C)c2)c1=O [Compound 127]	> 0.4 µM
COC[C@H](C)NC(=O)c1cc(-c2ccc3c(c2)OCCO3)nn(-c2cnn(C)c2)c1=O [Compound 128]	> 0.4 µM
COC[C@H](C)NC(=O)c1cc(-c2ccc3c(C)ccnc3c2)nn(-c2cnn(C)c2)c1=O [Compound 129]	> 0.4 µM
COC[C@H](C)NC(=O)c1cc(-c2ccc3cccnc3c2F)nn(-c2cnn(C)c2)c1=O [Compound 130]	0.1 to 0.4 µM
COC[C@H](C)NC(=O)c1cc(-c2ccc3nc(N)ccc3c2)nn(-c2cnn(C)c2)c1=O [Compound 131]	> 0.4 µM
COC[C@H](C)NC(=O)c1cc(-c2ccc3sc(C)nc3c2)nn(-c2cnn(C)c2)c1=O [Compound 132]	> 0.4 µM
COC[C@H](C)NC(=O)c1cc(-c2ccc3cnccc3c2)nn(-c2cnn(C)c2)c1=O [Compound 133]	> 0.4 µM
COC[C@H](C)NC(=O)c1cc(N2C(=O)C(C)(C)c3ccccc32)nn(-c2cnn(C)c2)c1=O [Compound 134]	> 0.4 µM
COC[C@H](C)NC(=O)c1cc(-n2cc(C)c(C)n2)nn(-c2cnn(C)c2)c1=O [Compound 135]	> 0.4 µM
COC[C@H](C)NC(=O)c1cc(-n2cc(C(F)(F)F)cn2)nn(-c2cnn(C)c2)c1=O [Compound 136]	> 0.4 µM
COC[C@H](C)NC(=O)c1cc(-n2ccc(C3CC3)n2)nn(-c2cnn(C)c2)c1=O [Compound 137]	> 0.4 µM
COC[C@H](C)NC(=O)c1cc(-n2ccc(C(F)(F)F)n2)nn(-c2cnn(C)c2)c1=O [Compound 138]	> 0.4 µM
COC[C@H](C)NC(=O)c1cc(-c2ccc3c(c2)OCO3)nn(-c2cnn(C)c2)c1=O [Compound 140]	> 0.4 µM
COC[C@H](C)NC(=O)c1cc(-c2ccc3c(c2)N(C)CC3)nn(-c2cnn(C)c2)c1=O [Compound 141]	> 0.4 µM
COC[C@H](C)NC(=O)c1cc(-n2ccc(-c3ccc(Cl)cc3)n2)nn(-c2cnn(C)c2)c1=O [Compound 142]	< 0.1 µM

Structure (SMILES)	IC50
COC[C@H](C)NC(=O)c1cc(-n2nc(C(F)(F)F)cc2C)nn(-c2cnn(C)c2)c1=O [Compound 143]	> 0.4 µM
COC[C@H](C)NC(=O)c1cc(-c2cc(F)c3ncccc3c2F)nn(-c2cnn(C)c2)c1=O [Compound 144]	> 0.4 µM
COC[C@H](C)NC(=O)c1cc(N2CCC3(CCCCC3)C2)nn(-c2cnn(C)c2)c1=O [Compound 145]	> 0.4 µM
COC[C@H](C)NC(=O)c1cc(C2=CCC(C)CC2)nn(-c2cnn(C)c2)c1=O (stereo partly shown) [Compound 149]	< 0.1 µM
COC[C@H](C)NC(=O)c1cc(-n2ccc3ccccc32)nn(-c2cnn(C)c2)c1=O [Compound 151]	> 0.4 µM
COC[C@H](C)NC(=O)c1cc(C2CCC(C)CC2)nn(-c2cnn(C)c2)c1=O (stereo partly shown) [Compound 152]	> 0.4 µM
COC[C@H](C)NC(=O)c1cc(-c2cc3c(O)ncnc3cc2F)nn(-c2cnn(C)c2)c1=O [Compound 154]	> 0.4 µM
COC[C@H](C)NC(=O)c1cc(-n2nnc3ccccc32)nn(-c2cnn(C)c2)c1=O [Compound 158]	> 0.4 µM
COC[C@H](C)NC(=O)c1cc(-n2nc3ccccc3n2)nn(-c2cnn(C)c2)c1=O [Compound 159]	0.1 to 0.4 µM
C[C@@H](CO)NC(=O)c1cc(-n2ccc(-c3ccc(Cl)cc3)n2)nn(-c2cnn(C)c2)c1=O [Compound 162]	< 0.1 µM
CN(C)C(=O)C(C)(C)NC(=O)c1cc(-c2ccc(C(F)(F)F)nc2)nn(-c2cnn(C)c2)c1=O [Compound 166]	> 0.4 µM
CNC(=O)C(C)(C)NC(=O)c1cc(-c2ccc(OC(F)(F)F)cc2)nn(-c2cnn(C)c2)c1=O [Compound 174]	0.1 to 0.4 µM
C[C@H](NC(=O)c1cc(-c2ccc(C(=O)N(C)C)cc2)nn(-c2cccc(F)c2)c1=O)C(=O)N(C)C [Compound 178]	> 0.4 µM
C[C@@H](CO)NC(=O)c1cc(-c2ccc(C(=O)N(C)C)cc2)nn(-c2cccc(F)c2)c1=O [Compound 179]	> 0.4 µM
CNC(=O)[C@H](C)NC(=O)c1cc(-c2ccc(C(=O)N(C)C)cc2)nn(-c2cccc(F)c2)c1=O [Compound 180]	< 0.1 µM
C[C@H](NC(=O)c1cc(-c2cnc(-c3ccc(Cl)cc3)nc2)nn(-c2cnn(C)c2)c1=O)C(=O)N(C)C [Compound 182]	< 0.1 µM
C[C@@H](CO)NC(=O)c1cc(-c2cnc(-c3ccccc3)nc2)nn(-c2cnn(C)c2)c1=O [Compound 187]	< 0.1 µM
C[C@H](NC(=O)c1cc(-n2ncc(-c3ccc(Cl)cc3)n2)nn(-c2cnn(C)c2)c1=O)C(=O)N(C)C [Compound 188]	> 0.4 µM
C[C@H](NC(=O)c1cc(-n2cc(-c3ccc(Cl)cc3)nn2)nn(-c2cnn(C)c2)c1=O)C(=O)N(C)C [Compound 189]	> 0.4 µM
CNC(=O)[C@H](C)NC(=O)c1cc(-n2ncc(-c3ccc(Cl)cc3)n2)nn(-c2cnn(C)c2)c1=O [Compound 190]	> 0.4 µM
C[C@@H](CO)NC(=O)c1cc(-c2ccc(-c3ccc4ncccc4c3)nc2)nn(-c2cnn(C)c2)c1=O [Compound 196]	> 0.4 µM
C[C@@H](CO)NC(=O)c1cc(N2CCN(c3ccccc3F)CC2)nn(-c2cnn(C)c2)c1=O [Compound 209]	< 0.1 µM
C[C@@H](CO)NC(=O)c1cc(N2CCN(c3cccc(F)c3)CC2)nn(-c2cnn(C)c2)c1=O [Compound 210]	< 0.1 µM
